Laboratory results: US6642216B2, “Isoprenoid pathway inhibitors for stimulating bone growth” (ZymoGenetics Corporation, priority 1996, dated 2003)
Where “and” joins values, the source holds several entries; their conditions need not be identical. Identical values can stand only once.

How the values were obtained:
[1] = tested on: serum response element (SRE)-luciferase reporter gene / CRE-luciferase reporter gene; test: negative control OBSRE (SRE-luciferase) and/or glucagon (CRE-luciferase) assays; assay type: cell-based, murine
From the text: In the negative control OBSRE assay, a murine osteoblast cell line, such as CCC-4 expressing a serum response element (SRE)-luciferase reporter gene is used (see WO96/07733). In the negative control glucagon assay, a glucagon receptor-positive BHK cell expressing a CRE-luciferase reporter gene is used (see U.S. Pat. No. 5,698,672).

[2] = tested on: ovariectomized Sprague-Dawley rats; test: Acute OVX (prevention model) oral dosing; assay type: in vivo, rat
Method: Lead compounds can also be tested in acute ovariectomized animals (prevention model) using an in vivo dosing assay. Such assays may also include an estrogen-treated group as a control. An exemplary subcutaneous dosing assay is performed as follows:
In a typical study, 80 three-month-old female Sprague-Dawley rats are weight-matched and divided into eight groups, with ten animals in each group. This includes a baseline control group of animals sacrificed at the initiation of the study; three control groups (sham ovariectomized (sham OVX)+vehicle only; ovariectomized (OVX)+vehicle only; PBS-treated OVX); and a control OVX group that is administered a compound known to promote bone growth. Three dosage levels of the compound to be tested are administered to the remaining three groups of OVX animals.
Since ovariectomy (OVX) induces hyperphagia, all OVX animals are pair-fed with sham OVX animals throughout the 35 day study. Briefly, test compound, positive control compound, PBS, or vehicle alone is administered orally or subcutaneously once per day for 35 days. Alternatively, test compound can be formulated in implantable pellets that are implanted for 35 days, or may be administered orally, such as by gastric gavage. All animals, including sham OVX/vehicle and OVX/vehicle groups, are injected intraperitoneally with calcein nine days and two days before sacrifice (two injections of calcein administered each designated day, to ensure proper labeling of newly formed bone). Weekly body weights are determined. At the end of the 35-day cycle, the animals' blood and tissues are processed as described above.
(§1) Lovastatin and simvastatin were analyzed in vivo using an acute OVX (prevention model) and/or chronic (treatment model) OVX model system, as described above under “Additional In Vivo Assays”.
Lovastatin was examined in an acute OVX study. Briefly, 59-0326 was orally administered (35, 7, or 1.4 mg/kg/day; once per day for 35 days) immediately following ovariectomy. At the end of the study, the animals' blood and tissues samples were processed, and the following data were obtained.
Similarly, lovastatin was orally administered (0.1, 1, 5, 10, 20 or 40 mg/kg/day; once per day for 35 days) immediately following ovariectomy. Two individuals histomorphometrically analyzed samples removed from animals that received the 10 mg/kg/day dose. These analyses indicated an increase in trabecular bone volume of 38% (not significant) or 90% (p<0.02) in the proximal tibia. The bone formation rate in the proximal tibia was determined to have increased 74% (p=0.004) in animals that received a 10 mg/kg/day dose or 37% (p<0.008) in animals that received a 1 mg/kg/day dose. In samples from animals that received the 1 mg/kg/day dose, mineral apposition rate in the proximal tibia was increased 22%.

[3] = tested on: rabbits; settings: Wang et al. 1995; cited from earlier work
[4] = tested on: osteoprogenitor cells cloned from bone marrow stroma; settings: Cui et al. 1996; cited from earlier work
[5] = tested on: chickens; settings: Cui et al. 1996; cited from earlier work
[6] = tested on: ovariectomized rats; test: Chronic OVX (treatment model) oral dosing; assay type: in vivo, rat; settings: once per day for 10 weeks, from 6 weeks post-ovariectomy, not significant
Method: Lead compounds may also be tested in chronic OVX animals (treatment model). An exemplary protocol for treatment of established bone loss in ovariectomized animals that can be used to assess efficacy of anabolic agents may be performed as follows. Briefly, 80 to 100 six month old female, Sprague-Dawley rats are subjected to sham surgery (sham OVX) or ovariectomy (OVX) at time 0, and 10 rats are sacrificed to serve as baseline controls. Body weights are recorded weekly during the experiment. After approximately 6 weeks (42 days) or more of bone depletion, 10 sham OVX and 10 OVX rats are randomly selected for sacrifice as depletion period controls. Of the remaining animals, 10 sham OVX and 10 OVX rats are used as placebo-treated controls. The remaining OVX animals are treated with 3 to 5 doses of test drug for a period of 5 weeks (35 days). As a positive control, a group of OVX rats can be treated with an agent such as PTH, a known anabolic agent in this model (Kimmel, et al., Endocrinology (1993) 132:1577-84). […]
as §1
Simvastatin was also examined in a chronic OVX study. […] At the 50 mg/kg/day dose, an 86% (not significant) increase in the bone formation rate in the proximal tibia was measured.

[7] = 7 mg/kg/day oral, once per day for 35 days

Row | dose-dependent stimulatory effect in control assays [1] | Compound | increase in trabecular bone volume in the proximal tibia ([2]; 7 mg/kg/day oral, 35 days, histomorphometric analysis by two individuals (p<0.001; p=0.0503)) | increase in trabecular bone volume in the distal femur ([2]; 7 mg/kg/day oral, 35 days, not significant) [%] | increase in bone formation rate in the distal femur ([2]; 7 mg/kg/day oral, 35 days, p=0.052) [%] | increase in cortical thickness (pQCT) [2, 7] [%] | increase in trabecular density (pQCT) [2, 7] [%] | increase in mineral apposition rate in the proximal tibia ([2]; second study, 1 mg/kg/day oral, 35 days) [%] | increase in bone formation rate in the proximal tibia ([2]; second study, 1 mg/kg/day oral, 35 days, p<0.008) [%] | increase in bone formation rate in the proximal tibia ([2]; second study, 10 mg/kg/day oral, 35 days, p=0.004) [%] | increase in trabecular bone volume in the proximal tibia ([2]; second study, 10 mg/kg/day oral, 35 days, two individuals (not significant; p<0.02), 10 mg/kg/day) | effect on bone formation in the absence of steroid treatment [3] | inhibition of the bone resorption resulting from steroid administration [3] | triglyceride vesicles accumulated on dexamethasone treatment [4] | bone loss in the femoral head as a result of dexamethasone treatment [5] | increase in the bone formation rate in the proximal tibia ([6]; 10 mg/kg/day oral) [%] | increase in the bone formation rate in the proximal tibia ([6]; 50 mg/kg/day oral) [%]
1 | not in control assays | CC[C@H](C)C(=O)O[C@H]1C[C@@H](C)C=C2C=C[C@H](C)[C@H](CC[C@@H]3C[C@@H](O)CC(=O)O3)[C@H]21 [Lovastatin, lovastatin] | 110% and 25% | 23 | 40 | 14 | 20 | 22 | 37 | 74 | 38% and 90% | no effect on bone formation | able to inhibit the bone resorption | diminished triglyceride vesicles | improved |  | 
2 |  | CCC(C)(C)C(=O)O[C@H]1C[C@@H](C)C=C2C=C[C@H](C)[C@H](CC[C@@H]3C[C@@H](O)CC(=O)O3)[C@H]21 [Simvastatin, simvastatin] |  |  |  |  |  |  |  |  |  |  |  |  |  | 114 | 86
